Results taken from publication PMC11672400, “Synthesis, Spectroscopic Characterization, Structural Analysis, and Evaluation of Anti-Tumor, Antimicrobial, and Antibiofilm Activities of Halogenoaminopyrazoles Derivatives” (Antibiotics, 2024).
≈ marks a conversion by molar mass, not a printed value. Like-named read-outs stand apart in the source and are kept apart here.

What was measured:
[1] = MTT cell viability / cytotoxicity on normal fibroblasts; type: cell-based, mouse; conditions: mouse
From the text: (§1) Merck chemicals were utilized.
(§2) Untreated cells were used as control, considered 100% viable cells.

[2] = tested on: NCTC (clone 929) mouse fibroblast cells; experiment: as above; type: cell-based; conditions: Mus musculus, NCTC clone 929; NCTC normal fibroblasts, MTT, 48 h
From the text: as §1, §2

[3] = tested on: Enterococcus faecalis ATCC29212; experiment: Qualitative evaluation of antimicrobial activity (inhibition zone, spot on agar); type: cell-based; set-up: key: (+) inhibited bacterial growth; (-) did not inhibit bacterial growth; conditions: 0.06 g/2 mL DMSO, 5 µL spot
Experimental: (§3) For testing the antimicrobial/antibiofilm activity, the concentration of the studied compounds was identical to 0.06 g/2 mL DMSO. 0.5 Standard McFarland suspension was used, which was inoculated onto Mueller Hinton agar plates, (Remel, Lenexa, KS, USA), 5 µL of each compound was spotted and incubated overnight at 37 °C. Antimicrobial activity was observed as zones of inhibition formed around the spot.

[4] = tested on: Escherichia coli ATCC25922; experiment: as above; type: cell-based; set-up: key: (+) inhibited bacterial growth; (-) did not inhibit bacterial growth; conditions: 0.06 g/2 mL DMSO, 5 µL spot
Experimental: as §3

[5] = tested on: Pseudomonas aeruginosa ATCC27853; experiment: as above; type: cell-based; set-up: key: (+) inhibited bacterial growth; (-) did not inhibit bacterial growth; conditions: 0.06 g/2 mL DMSO, 5 µL spot
Experimental: as §3

[6] = tested on: Staphylococcus aureus ATCC25923; experiment: as above; type: cell-based; set-up: key: (+) inhibited bacterial growth; (-) did not inhibit bacterial growth; conditions: 0.06 g/2 mL DMSO, 5 µL spot
Experimental: as §3

[7] = tested on: Enterococcus faecalis ATCC29212; experiment: MIC by serial microdilution in liquid medium; type: cell-based; conditions: 24 h, 37 °C; for MIC: Enterococcus faecalis, ATCC29212, read-out: Minimum inhibitory concentration, Enterococcus faecalis ATCC29212
Experimental: (§4) The minimum inhibitory concentrations (MIC) were determined by the serial microdilution method in a liquid medium (Tryptone Soy Broth), on 96-well plates. Serial binary dilutions of the compound stock solution (10 mg/mL in DMSO) were carried out in 90 µL of culture medium and 10 µL of 10^6 CFU/mL (Colony Forming Units) microbial suspension. Each test included a positive control (wells with culture medium and microbial suspension) and a negative control for medium sterility. After incubation at 37 °C for 24 h the plates were visually examined, and optical density was measured at 620 nm. […] The MIC value (µg/mL) for the chemical compound was determined by the concentration in the final well without bacterial growth. All experiments were performed in triplicate.

[8] = tested on: Escherichia coli ATCC25922; experiment: MIC by serial microdilution in liquid medium; type: cell-based; conditions: 24 h, 37 °C; for MIC: Escherichia coli, ATCC25922, read-out: Minimum inhibitory concentration, Escherichia coli ATCC25922
Experimental: as §4

[9] = tested on: Pseudomonas aeruginosa ATCC27853; experiment: MIC by serial microdilution in liquid medium; type: cell-based; conditions: 24 h, 37 °C; for MIC: Pseudomonas aeruginosa, ATCC27853, read-out: Minimum inhibitory concentration, Pseudomonas aeruginosa ATCC27853
Experimental: as §4

[10] = tested on: Staphylococcus aureus ATCC25923; experiment: MIC by serial microdilution in liquid medium; type: cell-based; conditions: 24 h, 37 °C; for MIC: Staphylococcus aureus, ATCC25923, read-out: Minimum inhibitory concentration, Staphylococcus aureus ATCC25923
Experimental: as §4

[11] = tested on: Pseudomonas aeruginosa ATCC27853; experiment: Antibiofilm assay (crystal violet), MBIC; type: cell-based; conditions: 37 °C; for Minimum biofilm inhibition concentration (MBIC), Pseudomonas aeruginosa ATCC27853: 24 h; for minimal effective concentration: Pseudomonas aeruginosa, ATCC27853, 24 h, read-out: Minimum biofilm inhibition concentration (MBIC), Pseudomonas aeruginosa ATCC27853
Experimental: (§5) Microorganisms were grown in 96-well plates filled with nutrient broth along with test substances, followed by incubation at 37 °C for 24 h. Plates were cleaned and rinsed thrice using SPW solution (sterile physiological water). After that, the attached cells were treated with 110 μL of methanol for 5 min, and then the methanol was removed by turning it upside down. […] Once stained, the solution was removed, and the plates were washed with running tap water. […] The antimicrobial/antibiofilm activity of the compounds was evaluated against two antibiotics, commercial formulations of metronidazole and nitrofurantoin.

[12] = tested on: Staphylococcus aureus ATCC25923; experiment: Antibiofilm assay (crystal violet), MBIC; type: cell-based; conditions: 24 h, 37 °C; for minimal effective concentration: Staphylococcus aureus, ATCC25923, read-out: Minimum biofilm inhibition concentration (MBIC), Staphylococcus aureus ATCC25923
Experimental: as §5

[13] = tested on: HEp-2 epithelial tumor cells; experiment: MTT cell viability / anti-tumor activity; conditions: for viability at 3.1 µg/mL / viability at 6.25 µg/mL / viability at 12.5 µg/mL / viability at 25 µg/mL / viability at 50 µg/mL / IC50: Homo sapiens; for viability at 3.1 µg/mL / viability at 6.25 µg/mL / viability at 12.5 µg/mL / viability at 25 µg/mL / viability at 50 µg/mL: read-out: Cell viability on Hep2 cells (%); for IC50: read-out: IC50 µg/mL on HEp-2 Cells 48 h, HEp-2 epithelial tumor cells, MTT, 48 h
[14] = tested on: Escherichia coli ATCC25922; experiment: Antibiofilm assay (crystal violet), MBIC; type: cell-based; conditions: 37 °C; for minimal effective concentration: Escherichia coli, ATCC25922, 24 h, read-out: Minimum biofilm inhibition concentration (MBIC), Escherichia coli ATCC25922
Experimental: as §5

[15] = tested on: Enterococcus faecalis ATCC29212; experiment: Antibiofilm assay (crystal violet), MBIC; type: cell-based; conditions: Enterococcus faecalis, ATCC29212, 24 h, 37 °C, read-out: Minimum biofilm inhibition concentration (MBIC), Enterococcus faecalis ATCC29212
Experimental: as §5

[16] = NCTC clone 929 (L929) mouse fibroblast cells
[17] = read-out: Cell viability on NCTC cells (%)

SMILES	IC50 [2]	Qualitative antimicrobial activity, Enterococcus faecalis ATCC29212 [3]	Qualitative antimicrobial activity, Escherichia coli ATCC25922 [4]	Qualitative antimicrobial activity, Pseudomonas aeruginosa ATCC27853 [5]	Qualitative antimicrobial activity, Staphylococcus aureus ATCC25923 [6]	MIC [7]	MIC [8]	MIC [9]	MIC [10]	minimal effective concentration [11]	minimal effective concentration [12]	viability at 3.1 µg/mL ([13]; HEp-2, 24 h)	viability at 6.25 µg/mL ([13]; HEp-2, 24 h)	viability at 12.5 µg/mL ([13]; HEp-2, 24 h)	viability at 25 µg/mL ([13]; HEp-2, 24 h)	viability at 50 µg/mL ([13]; HEp-2, 24 h)	viability at 3.1 µg/mL ([13]; HEp-2, 48 h)	viability at 6.25 µg/mL ([13]; HEp-2, 48 h)	viability at 12.5 µg/mL ([13]; HEp-2, 48 h)	viability at 25 µg/mL ([13]; HEp-2, 48 h)	other results
Cc1nn(CNc2ccc(Cl)cc2)c(C)c1[N+](=O)[O-] [4b, N-[(3,5-dimetyl-4-nitro-1H-pyrazol-1-yl)-methyl]-4-chloroaniline]	36.1 ± 1.23 µg/mL (≈ 129 µM)	+	+	+	+	460 µg/mL (≈ 1640 µM)	460 µg/mL (≈ 1640 µM)	460 µg/mL (≈ 1640 µM)	460 µg/mL (≈ 1640 µM)	460 µg/mL	460 µg/mL	116 ± 2.48%	105 ± 2.91%	100 ± 2.49%	88.8 ± 1.65%	65.6 ± 2.78%	112.6 ± 1.03%	104 ± 1.08%	98 ± 1.42%	79.5 ± 1.49%	viability at 24 h, 3.1 µg/mL [1, 16]: 100 ± 1.63%; viability at 48 h, 3.1 µg/mL [1, 16]: 95.08 ± 0.82%; viability at 24 h, 6.25 µg/mL [1, 16]: 101 ± 3.31%; viability at 48 h, 6.25 µg/mL [1, 16]: 93 ± 1.35%; viability at 24 h, 12.5 µg/mL [1, 16]: 98.6 ± 2.62%; viability at 48 h, 12.5 µg/mL [1, 16]: 89.7 ± 3.15%; viability at 24 h, 25 µg/mL [1, 16]: 96.3 ± 2.22%; viability at 48 h, 25 µg/mL [1, 16]: 61.9 ± 1.38%; viability at 24 h, 50 µg/mL [1, 16]: 64.9 ± 0.94%; viability at 48 h, 50 µg/mL [1, 16]: 31.6 ± 1.27%; Minimum inhibitory concentration, Enterococcus faecalis ATCC29212 [7]: 460 ± 0.02 µg/mL (≈ 1640 µM); Minimum inhibitory concentration, Escherichia coli ATCC25922 [8]: 460 ± 0.05 µg/mL (≈ 1640 µM); Minimum inhibitory concentration, Pseudomonas aeruginosa ATCC27853 [9]: 460 ± 0.01 µg/mL (≈ 1640 µM); Minimum inhibitory concentration, Staphylococcus aureus ATCC25923 [10]: 460 ± 0.02 µg/mL (≈ 1640 µM); Minimum biofilm inhibition concentration (MBIC), Pseudomonas aeruginosa ATCC27853 [11]: 460 ± 0.02 µg/mL; Minimum biofilm inhibition concentration (MBIC), Staphylococcus aureus ATCC25923 [12]: 460 ± 0.01 µg/mL; melting point: 99 to 100 °C; viability at 50 µg/mL ([13]; HEp-2, 48 h): 46.8 ± 3.35%; IC50 ([13]; HEp-2, 48 h): 47.3 ± 3.38 µg/mL (≈ 169 µM)
Cc1nn(CN(Cn2nc(C)c([N+](=O)[O-])c2C)c2ccc(Cl)cc2)c(C)c1[N+](=O)[O-] [5b, N,N-bis-[(3,5-dimetyl-4-nitro-1H-pyrazol-1-yl)-methyl]-4-chloroaniline]	29.8 ± 0.32 µg/mL (≈ 68.7 µM)	+	+	+	+	460 ± 0.54 µg/mL (≈ 1060 µM)	460 µg/mL (≈ 1060 µM)	460 ± 0.58 µg/mL (≈ 1060 µM)	460 µg/mL (≈ 1060 µM)	460 µg/mL	460 µg/mL	105 ± 1.52%	104 ± 2.25%	102 ± 3.76%	90.8 ± 2.84%	65.3 ± 2.02%	110 ± 1.25%	94.7 ± 3.8%	87.1 ± 0.92%	74.8 ± 0.33%	viability at 24 h, 3.1 µg/mL [1, 17]: 99.1 ± 3.42%; viability at 48 h, 3.1 µg/mL [1, 17]: 100 ± 2.53%; viability at 24 h, 6.25 µg/mL [1, 17]: 103 ± 3.06%; viability at 48 h, 6.25 µg/mL [1, 17]: 94.9 ± 2.14%; viability at 24 h, 12.5 µg/mL [1, 17]: 98.8 ± 3.47%; viability at 48 h, 12.5 µg/mL [1, 17]: 84 ± 3.77%; viability at 24 h, 25 µg/mL [1, 17]: 70 ± 2.51%; viability at 48 h, 25 µg/mL [1, 17]: 55.2 ± 1.6%; viability at 24 h, 50 µg/mL [1, 17]: 48.6 ± 1.35%; viability at 48 h, 50 µg/mL [1, 17]: 28.1 ± 0.35%; Minimum inhibitory concentration, Escherichia coli ATCC25922 [8]: 460 ± 0.27 µg/mL (≈ 1060 µM); Minimum inhibitory concentration, Staphylococcus aureus ATCC25923 [10]: 460 ± 0.01 µg/mL (≈ 1060 µM); Minimum biofilm inhibition concentration (MBIC), Escherichia coli ATCC25922 ([14]; 24 h): 460 ± 0.03 µg/mL; minimal effective concentration [14]: 460 µg/mL; Minimum biofilm inhibition concentration (MBIC), Pseudomonas aeruginosa ATCC27853 [11]: 460 ± 0.51 µg/mL; Minimum biofilm inhibition concentration (MBIC), Staphylococcus aureus ATCC25923 [12]: 460 ± 0.01 µg/mL; melting point: 132 to 134 °C; IC50 µg/mL on HEp-2 Cells 48 h ([13]; HEp-2 epithelial tumor cells, MTT, 48 h): >50 µg/mL; viability at 50 µg/mL ([13]; HEp-2, 48 h): 54.6 ± 1.17%; IC50 ([13]; HEp-2, 48 h): 26.6 to 47.3 µg/mL (≈ 61.3 to 109 µM)
Cc1nn(CN(Cn2nc(C)c([N+](=O)[O-])c2C)c2ccc(I)cc2)c(C)c1[N+](=O)[O-] [5d, N,N-bis-[(3,5-dimetyl-4-nitro-1H-pyrazol-1-yl)-methyl]-4-iodoaniline]	> 50 µg/mL	-	-	-	-	1870 ± 0.05 µg/mL (≈ 3560 µM)	1870 ± 0.04 µg/mL (≈ 3560 µM)	1870 ± 0.04 µg/mL (≈ 3560 µM)	1870 ± 0.07 µg/mL (≈ 3560 µM)	930 ± 0.15 µg/mL	930 ± 0.15 µg/mL	88.45 ± 0.28%	89.15 ± 0.73%	91.41 ± 0.69%	89.86 ± 0.48%	89.86 ± 0.16%	96.17 ± 0.13%	78.61 ± 0.67%	61.51 ± 0.34%	45.75 ± 0.33%	viability at 24 h, 3.1 µg/mL [1, 17]: 103 ± 1.49%; viability at 48 h, 3.1 µg/mL [1, 17]: 93.58 ± 0.71%; viability at 24 h, 6.25 µg/mL [1, 17]: 108 ± 2.4%; viability at 48 h, 6.25 µg/mL [1, 17]: 103%; viability at 24 h, 12.5 µg/mL [1, 17]: 106 ± 2.05%; viability at 48 h, 12.5 µg/mL [1, 17]: 102 ± 3.03%; viability at 24 h, 25 µg/mL [1, 17]: 98.4 ± 3.87%; viability at 48 h, 25 µg/mL [1, 17]: 95.8 ± 2.12%; viability at 24 h, 50 µg/mL [1, 17]: 83 ± 2.9%; viability at 48 h, 50 µg/mL [1, 17]: 88.3 ± 1.55%; minimal effective concentration [15]: 1870 ± 0.15 µg/mL; minimal effective concentration [14]: 1870 ± 0.15 µg/mL; viability at 50 µg/mL ([13]; HEp-2, 48 h): 20.8%; IC50 ([13]; HEp-2, 48 h): 26.61 ± 0.11 µg/mL (≈ 50.7 µM)
